The values below come from paper PMC12292835, “Amylin Receptor 1 Mutagenesis Revealed a Potential Role of Calcitonin Serine 29 in Receptor Interaction” (Biomedicines, 2025).

The target of experiment [1] is T1, amylin receptor 1 ECD with calcitonin receptor E123D mutation (Homo sapiens, UniProt O60894+P30988, E123D).
T1 construct: pHLsec/hRAMP1.24–111-(GSA)3-hCTR.34–141.E123D-H6 (D-pJJ001); H6 (hexahistidine) (C); made in house; host or cells: HEK293 (transient transfection, secreted, N-glycosylated)
T1 sequence (O60894 24-111): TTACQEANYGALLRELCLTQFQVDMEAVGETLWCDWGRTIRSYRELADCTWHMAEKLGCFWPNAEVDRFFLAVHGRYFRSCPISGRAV
T1 sequence (P30988 34-141 E123D): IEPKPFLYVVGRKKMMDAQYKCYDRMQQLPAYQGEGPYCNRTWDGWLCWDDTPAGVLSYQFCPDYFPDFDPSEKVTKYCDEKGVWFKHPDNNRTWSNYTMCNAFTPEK
As to the kind of experiment: FP saturation binding, E123D. To be noted: for Average fluorescence intensity change upon receptor ECD binding: % of a free probe intensity, Mean ± S.D., max receptor 3 μM (sCT), 1 μM (AC413); for effect of mutation on binding affinity: compared with E123A, in words. From the text:
(§1) pHLsec-based vectors were used to express wild-type and mutated amylin receptor 1 extracellular domains as secreted proteins to cell culture media. The plasmid DNA construct of the wild-type amylin receptor 1 extracellular domain, pHLsec/hRAMP1.24–111-(GSA)3-hCTR.34–141-H6 (H-pSL005) was previously described. The following DNA vector plasmids were made for this study: pHLsec/hRAMP1.24–111-(GSA)3-hCTR.34–141.D97A-H6 (D-pSL009), pHLsec/hRAMP1.24–111-(GSA)3-hCTR.34–141.D97E-H6 (D-pJS001), pHLsec/hRAMP1.24–111-(GSA)3-hCTR.34–141.D101A-H6 (D-pJJ003), pHLsec/hRAMP1.24–111-(GSA)3-hCTR.34–141.D101E-H6 (D-pJJ002), pHLsec/hRAMP1.24–111-(GSA)3-hCTR.34–141.E123A-H6 (D-pJJ004), pHLsec/hRAMP1.24–111-(GSA)3-hCTR.34–141.E123D-H6 (D-pJJ001), pHLsec/hRAMP1.24–111-(GSA)3-hCTR.34–141.N124A-H6 (D-pJS005), pHLsec/hRAMP1.24–111-(GSA)3-hCTR.34–141.N124D-H6 (D-pJS006), pHLsec/hRAMP1.24–111-(GSA)3-hCTR.34–141.N135A-H6 (D-pJW001), and pHLsec/hRAMP1.24–111-(GSA)3-hCTR.34–141.N135D-H6 (D-pJS002). The mutations were introduced to the calcitonin receptor extracellular domain by using DNA Assembly reaction. Coding sequences of the receptor expression vectors were confirmed with Sanger sequencing by Bionics (Seoul, Republic of Korea). DNA plasmid vectors were extracted and were purified from bacterial cells with NucleoBond® Extra Midi Plus kit (Macherey-Nagel, Germany). The purified DNA vectors were stored at −20 °C until their use for mammalian cell transfection.
(§2) The overall experimental procedure of reconstituting the functional amylin receptor 1 extracellular domain (ECD) as the fusion protein of RAMP1 ECD and the calcitonin receptor ECD was previously described. The wild-type and mutated amylin receptor 1 ECDs were expressed from HEK293 cells with transient transfection with polyethylenimine. The expressed receptor proteins were secreted to cell culture media for 4 days at 37 °C. The media were collected for the receptor protein purification. Initial dialysis was performed with the dialysis buffer (Tris 25 mM (pH 7.4), NaCl 150 mM, and imidazole 10 mM) overnight. […] Then, a size exclusion column chromatography (SEC) was performed with SEC column (Cytiva, HiLoad® 16/600 Superdex® 200 pg) and SEC buffer (Tris 50 mM (pH 7.4), NaCl 150 mM, and glycerol (v/v) 10%) as previously described. As the final step, the purified receptor proteins were dialyzed to storage buffer (HEPES 25 mM (pH 7.4), NaCl 150 mM, and glycerol (v/v) 50 %) and were stored at −60 °C until their use for the receptor–ligand binding assay. […]
(§3) The overall procedure of the FP binding assay with a saturation binding format was previously described. […] FITC-labeled peptide probes were incubated for 1 h at room temperature with the purified receptor protein prior to fluorescence signal measurement. […]

For experiment [2], the target named is T2, amylin receptor 1 ECD with calcitonin receptor D101A mutation (Homo sapiens, UniProt O60894+P30988, D101A).
T2 construct: pHLsec/hRAMP1.24–111-(GSA)3-hCTR.34–141.D101A-H6 (D-pJJ003); H6 (hexahistidine) (C); made in house; host or cells: HEK293 (transient transfection, secreted, N-glycosylated)
T2 sequence (O60894 24-111): as the sequence (O60894 24-111) above
T2 sequence (P30988 34-141 D101A): as the sequence (P30988 34-141 E123D) above, with D68A, D90E counted along it
As to the kind of experiment: FP saturation binding, D101A. To be noted: for Average fluorescence intensity change upon receptor ECD binding: % of a free probe intensity, Mean ± S.D., max receptor 1 μM; for effect of mutation on binding affinity: in words.
Text: as §1, §2, §3

Experiment [3] concerns the target T3, amylin receptor 1 ECD with calcitonin receptor D97A mutation (Homo sapiens, UniProt O60894+P30988, D97A).
T3 construct: pHLsec/hRAMP1.24–111-(GSA)3-hCTR.34–141.D97A-H6 (D-pSL009); H6 (hexahistidine) (C); made in house; host or cells: HEK293 (transient transfection, secreted, N-glycosylated)
Description: FP saturation binding, D97A. To be noted: for Average fluorescence intensity change upon receptor ECD binding: % of a free probe intensity, Mean ± S.D., max receptor 3 μM (sCT), 1 μM (AC413).
Text: as §1, §2, §3

Experiment [4] has as its target T4, amylin receptor 1 ECD with calcitonin receptor N135D mutation (Homo sapiens, UniProt O60894+P30988, N135D).
T4 construct: pHLsec/hRAMP1.24–111-(GSA)3-hCTR.34–141.N135D-H6 (D-pJS002); H6 (hexahistidine) (C); made in house; host or cells: HEK293 (transient transfection, secreted, N-glycosylated)
Description: FP saturation binding, N135D. Particulars: for Average fluorescence intensity change upon receptor ECD binding: % of a free probe intensity, Mean ± S.D., max receptor 3 μM (sCT), 1 μM (AC413); for effect of mutation on binding affinity: in words.
Text: as §1, §2, §3

Experiment [5] addresses T5, amylin receptor 1 ECD wild-type (WT) (Homo sapiens, UniProt O60894+P30988).
T5 construct: pHLsec/hRAMP1.24–111-(GSA)3-hCTR.34–141-H6 (H-pSL005); H6 (hexahistidine) (C); made in house; host or cells: HEK293 (transient transfection, secreted, N-glycosylated)
As to the kind of experiment: FP saturation binding, FITC peptide probes, wild-type amylin receptor 1 ECD. Particulars: for Average fluorescence intensity change upon receptor ECD binding: % of a free probe intensity, Mean ± S.D., WT, max receptor 3 μM (sCT), 1 μM (AC413).
Text: as §1
The overall experimental procedure of reconstituting the functional amylin receptor 1 extracellular domain (ECD) as the fusion protein of RAMP1 ECD and the calcitonin receptor ECD was previously described. The wild-type and mutated amylin receptor 1 ECDs were expressed from HEK293 cells with transient transfection with polyethylenimine. […]
as §3

SMILES strings stand for the structures. Where a SMILES comes first, the peptide text is derived from it. The star is where a group is joined. FITC = O=C1OC2(c3ccc(O)cc3Oc3cc(O)ccc32)c2ccc(NC(=S)*)cc21

T5 sequence (O60894 24-111): as the sequence (O60894 24-111) above
T5 sequence (P30988 34-141): as the sequence (P30988 34-141 E123D) above, with D90E counted along it
T3 sequence (O60894 24-111): as the sequence (O60894 24-111) above
T3 sequence (P30988 34-141 D97A): as the sequence (P30988 34-141 E123D) above, with D64A, D90E counted along it
T4 sequence (O60894 24-111): as the sequence (O60894 24-111) above
T4 sequence (P30988 34-141 N135D): as the sequence (P30988 34-141 E123D) above, with D90E, N102D counted along it

With `CC(C)C[C@H](NC(=O)[C@H](CCCNC(=N)N)NC(=O)[C@@H](NC(=O)[C@H](CC(C)C)NC(=O)[C@H](Cc1ccccc1)NC(=O)[C@H](CC(N)=O)NC(=O)[C@H](C)NC(=S)Nc1ccc2c(c1)C(=O)OC21c2ccc(O)cc2Oc2cc(O)ccc21)C(C)C)C(=O)N[C@@H](CCC(N)=O)C(=O)N[C@H](C(=O)N[C@@H](Cc1ccc(O)cc1)C(=O)N1CCC[C@H]1C(=O)N[C@@H](CCCNC(=N)N)C(=O)N[C@H](C(=O)N[C@@H](CC(N)=O)C(=O)N[C@H](C(=O)NCC(=O)N[C@@H](C)C(=O)N[C@@H](CC(N)=O)C(=O)N[C@H](C(=O)N1CCC[C@H]1C(N)=O)[C@@H](C)O)C(C)C)[C@@H](C)O)[C@@H](C)O` [FITC-AC413(6–25) Y25P] ({FITC}-ANFLVRLQTYPRTNVGANTP-NH2; C-terminus assumed), the “Average fluorescence intensity change upon receptor ECD binding” value in experiment [1] is 72 ± 4%; in experiment [2], 97 ± 3%; in experiment [3] (D97A) it was 71 ± 4%; in experiment [4], 85 ± 15%; in experiment [5] it was 67 ± 8%. Further, the “effect of mutation on binding affinity” value in experiment [1] was “failed to restore the decreased binding affinity”; in experiment [2], “markedly decreased the binding affinity”; in experiment [3] (D97A, in words), “not significantly changed”; in experiment [4], “failed to recover the binding affinity”.
Consider `C[C@@H](O)[C@H](NC(=O)[C@H](CC(N)=O)NC(=O)[C@@H](NC(=O)[C@H](CCCNC(=N)N)NC(=O)[C@@H]1CCCN1C(=O)[C@H](Cc1ccc(O)cc1)NC(=S)Nc1ccc2c(c1)C(=O)OC21c2ccc(O)cc2Oc2cc(O)ccc21)[C@@H](C)O)C(=O)NCC(=O)N[C@@H](CO)C(=O)NCC(=O)N[C@H](C(=O)N1CCC[C@H]1C(N)=O)[C@@H](C)O` [FITC-sCT(22–32)] ({FITC}-YPRTNTGSGTP-NH2; C-terminus assumed), for which the “Average fluorescence intensity change upon receptor ECD binding” value amounted to 72 ± 6% in experiment [1]; 101 ± 4% in experiment [2]; 75 ± 12% in experiment [3] (D97A); 99 ± 0.1% in experiment [4]; 71 ± 4% in experiment [5]. In addition, the “effect of mutation on binding affinity” value was “fully restored the decreased binding affinity” in experiment [1], “markedly decreased the binding affinity” in experiment [2] and “failed to recover the binding affinity” in experiment [4]. The “decrease of binding affinity” value in experiment [3] (D97A versus wild-type receptor ECD) came out at 6.8 fold. In experiment [5] (KD 81 nM versus previously reported KI 2.5 μM of non-labeled sCT(22–32)), the “stronger affinity of FITC-labeled over non-labeled peptide” value is “more than 30 fold”.
